Results: patent EP4745135A1 (Gluetacs Therapeutics (Shanghai) Co., Ltd., priority 2023, dated 2025)

Experiments:
[1] = test system: GSPT1; assay: Western blot, degradation of substrate protein in hPBMCs; assay type: cell-based, Human
Protocol: (§1) Conventional Western blot assay was performed to evaluate the effects of the compounds of the present disclosure on the expression of target proteins in cells. • (1) Cell Seeding and Protein Harvesting: Human peripheral blood mononuclear cells (hPBMCs) at a density of 1×10^6 cells/mL were thawed according to the PBMC Recovery Protocol (Milecell Biotechnologies Inc, Shanghai). […] After 24 hours of compounds treatment, cells were harvested and lysed in RIPA protein lysate containing protease inhibitors on ice for 30 min, followed by centrifugation. The supernatant was aspirated as the extracted total cell protein. The protein concentration of the supernatant was determined using the conventional BCA (Bicinchoninic Acid) assay. • (2) To the collected supernatant, 5X SDS sample loading buffer was added, followed by denaturation at 95°C for 5 minutes. The denatured samples were then separated by SDS-PAGE electrophoresis on a polyacrylamide gel, transferred onto a nitrocellulose membrane (0.45 µm NC membrane), blocked with blocking buffer at room temperature for 1 hour, and subjected to antibody incubation and development procedures according to the antibody manufacturer's instructions (Cell Signaling Technology Company).
(§2) Half-Maximal Degradation Concentration value (the drug concentration required for degrading proteins by 50%, abbreviated as DC50) reads method: comparing the grayscale values of Western blot bands from drug-treated samples with those from blank DMSO-treated controls, and identifying the drug concentration range at which the grayscale value is half that of the DMSO-treated control bands.
(§3) DC50 values can be calculated using ImageJ software to measure grayscale values of Western blot bands from drug-treated samples. The concentration-response curve is fitted to estimate the drug concentration corresponding to half the grayscale value.
(§4) Target protein remaining (%) refers to the percentage of target protein remaining in cells after treatment with protein degrader compounds.
(§5) Calculation method for target protein remaining (%): Use ImageJ software to measure grayscale values of Western blot bands from drug (protein degrader)-treated samples. The grayscale value of drug-treated bands is divided by that of internal control protein bands, and the resulting quotient is normalized to obtain the relative percentage of remaining target protein after protein degrader treatment.
(§6) Target protein degradation rate (%) = 1−target protein remaining (%). [formula]

[2] = molecular target: T1, IKZF2 (Homo sapiens, UniProt Q96SW2+Q9UKS7); assay: as above; assay type: cell-based
T1 construct: effects of the compounds of the present disclosure on the expression of target proteins in cells; endogenous in cells; host or cells: human PBMCs (Milecell Biotechnologies)
Protocol: as §1, §2, §3, §4, §5, §6

[3] = molecular target: T2, WEE1 (Homo sapiens, UniProt P30291+Q96SW2); assay: as above; assay type: cell-based
T2 construct: effects of the compounds of the present disclosure on the expression of target proteins in cells; endogenous in cells; host or cells: human PBMCs (Milecell Biotechnologies)
Protocol: as §1, §2, §3, §4, §5, §6

[4] = molecular target: T3, CK1α (Homo sapiens, UniProt P48729+Q96SW2); assay: as above; assay type: cell-based
T3 construct: effects of the compounds of the present disclosure on the expression of target proteins in cells; endogenous in cells; host or cells: human PBMCs (Milecell Biotechnologies)
Protocol: as §1, §2, §3, §4, §5, §6

[5] = molecular target: T4, IKZF3 (Homo sapiens, UniProt Q96SW2+Q9UKT9); assay: as above; assay type: cell-based
T4 construct: effects of the compounds of the present disclosure on the expression of target proteins in cells; endogenous in cells; host or cells: human PBMCs (Milecell Biotechnologies)
Protocol: as §1, §2, §3, §4, §5, §6

[6] = molecular target: T5, IKZF1 (Homo sapiens, UniProt Q13422+Q96SW2); assay: as above; assay type: cell-based
T5 construct: effects of the compounds of the present disclosure on the expression of target proteins in cells; endogenous in cells; host or cells: human PBMCs (Milecell Biotechnologies)
Protocol: as §1, §2, §3, §4, §5, §6

[7] = molecular target: T6, human Cereblon WT GST-tagged protein (Homo sapiens, UniProt Q96SW2); assay: CRBN-binding affinity, HTRF (CEREBLON BINDING kit); conditions: for inhibition at 0.5 µM: read-out: Inhibition Rate at 0.5 µM (%); for inhibition at 2 µM: read-out: Inhibition Rate at 2 µM (%)
T6 construct: purchased CISBIO 64BDCRBNPEH
Protocol: The CEREBLON BINDING kits (specification: 10,000 tests; product number: Catalog # 64BDCRBNPEH; CISBIO company) was used to determine the CRBN binding ability of the compounds to be tested through a HTRF method (homogeneous time-resolved fluorescence). The specific methods are as follows: • 1. […] Specifically, diluent #9 (1X) solution was used as the diluent, and multiple concentration gradients were set. […] Then, 2.5 µL of human Cereblon WT GST-tagged protein solution was added to each well. Finally, 5 µL of the thoroughly mixed Thalidomide-Re reagent and GST Eu antibody working solution were added to each of the aforementioned wells. […] The blank control wells were sequentially added with 2.5 µL of diluent #9 (1X) solution, 2.5 µL of PROTAC binding buffer, and 5 µL of thoroughly mixed Thalidomide-Re reagent and GST Eu antibody working solution. • 4.

[8] = Western blot, 24 hours of compound treatment, compounds tested at 50 nM and 500 nM (concentration for the table not stated)
[9] = 24 hours treatment, compounds at 50 nM and 500 nM (concentration behind the class not stated)

T1 sequence (Q9UKS7 whole entry): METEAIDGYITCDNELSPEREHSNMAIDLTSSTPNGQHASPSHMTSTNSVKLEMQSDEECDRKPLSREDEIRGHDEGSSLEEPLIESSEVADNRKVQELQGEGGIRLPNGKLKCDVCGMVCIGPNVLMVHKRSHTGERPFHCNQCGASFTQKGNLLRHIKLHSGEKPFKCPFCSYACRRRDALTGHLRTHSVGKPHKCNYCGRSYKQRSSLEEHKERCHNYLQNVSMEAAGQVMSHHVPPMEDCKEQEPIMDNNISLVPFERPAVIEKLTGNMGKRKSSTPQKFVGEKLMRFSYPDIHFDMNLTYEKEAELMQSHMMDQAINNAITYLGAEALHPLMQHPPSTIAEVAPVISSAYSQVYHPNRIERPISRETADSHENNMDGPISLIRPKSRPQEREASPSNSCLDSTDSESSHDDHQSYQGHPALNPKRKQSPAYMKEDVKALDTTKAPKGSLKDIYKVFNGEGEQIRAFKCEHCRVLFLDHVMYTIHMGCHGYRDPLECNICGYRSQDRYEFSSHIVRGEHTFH
T1 sequence (Q96SW2 whole entry): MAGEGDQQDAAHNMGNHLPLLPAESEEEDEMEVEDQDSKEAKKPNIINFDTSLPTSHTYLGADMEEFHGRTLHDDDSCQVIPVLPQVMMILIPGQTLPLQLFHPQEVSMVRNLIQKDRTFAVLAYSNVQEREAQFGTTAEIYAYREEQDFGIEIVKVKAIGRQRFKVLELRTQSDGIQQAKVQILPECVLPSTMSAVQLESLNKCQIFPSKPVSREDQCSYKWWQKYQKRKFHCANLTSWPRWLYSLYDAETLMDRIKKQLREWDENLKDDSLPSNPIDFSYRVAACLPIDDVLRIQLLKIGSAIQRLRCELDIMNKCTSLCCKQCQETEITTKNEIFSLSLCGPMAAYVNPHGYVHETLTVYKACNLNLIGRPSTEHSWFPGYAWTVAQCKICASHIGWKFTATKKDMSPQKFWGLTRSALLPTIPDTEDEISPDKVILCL
T1 sequence (Q16531 whole entry partner): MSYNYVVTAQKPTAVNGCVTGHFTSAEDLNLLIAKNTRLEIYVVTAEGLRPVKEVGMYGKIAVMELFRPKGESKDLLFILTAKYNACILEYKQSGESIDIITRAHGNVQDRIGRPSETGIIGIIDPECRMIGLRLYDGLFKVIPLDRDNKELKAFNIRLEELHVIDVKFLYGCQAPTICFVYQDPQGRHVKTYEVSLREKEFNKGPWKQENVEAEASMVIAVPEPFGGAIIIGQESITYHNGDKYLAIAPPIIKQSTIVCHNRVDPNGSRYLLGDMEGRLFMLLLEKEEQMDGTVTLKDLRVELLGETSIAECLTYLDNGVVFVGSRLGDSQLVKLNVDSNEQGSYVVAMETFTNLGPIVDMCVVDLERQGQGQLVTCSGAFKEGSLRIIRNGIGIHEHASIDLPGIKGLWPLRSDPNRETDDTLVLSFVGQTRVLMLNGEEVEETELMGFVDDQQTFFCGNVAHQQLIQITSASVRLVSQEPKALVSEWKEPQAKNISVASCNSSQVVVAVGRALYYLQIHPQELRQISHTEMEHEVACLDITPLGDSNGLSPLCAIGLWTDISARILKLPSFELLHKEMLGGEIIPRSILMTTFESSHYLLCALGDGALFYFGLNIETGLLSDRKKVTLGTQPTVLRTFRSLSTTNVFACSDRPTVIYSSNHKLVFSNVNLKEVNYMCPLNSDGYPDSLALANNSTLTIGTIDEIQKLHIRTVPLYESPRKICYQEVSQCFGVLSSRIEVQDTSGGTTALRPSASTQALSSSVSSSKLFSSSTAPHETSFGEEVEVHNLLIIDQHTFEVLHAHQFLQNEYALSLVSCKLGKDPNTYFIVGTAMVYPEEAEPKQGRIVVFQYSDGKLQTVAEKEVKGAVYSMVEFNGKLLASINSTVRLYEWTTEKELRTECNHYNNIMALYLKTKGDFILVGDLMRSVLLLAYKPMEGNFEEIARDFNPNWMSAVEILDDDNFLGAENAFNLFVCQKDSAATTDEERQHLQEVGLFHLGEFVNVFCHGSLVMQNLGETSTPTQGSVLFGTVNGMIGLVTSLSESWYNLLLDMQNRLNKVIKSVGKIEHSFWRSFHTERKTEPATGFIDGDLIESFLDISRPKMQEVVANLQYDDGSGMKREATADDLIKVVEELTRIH
T6 sequence (Q96SW2 whole entry): as the sequence (Q96SW2 whole entry) above
T5 sequence (Q13422 whole entry): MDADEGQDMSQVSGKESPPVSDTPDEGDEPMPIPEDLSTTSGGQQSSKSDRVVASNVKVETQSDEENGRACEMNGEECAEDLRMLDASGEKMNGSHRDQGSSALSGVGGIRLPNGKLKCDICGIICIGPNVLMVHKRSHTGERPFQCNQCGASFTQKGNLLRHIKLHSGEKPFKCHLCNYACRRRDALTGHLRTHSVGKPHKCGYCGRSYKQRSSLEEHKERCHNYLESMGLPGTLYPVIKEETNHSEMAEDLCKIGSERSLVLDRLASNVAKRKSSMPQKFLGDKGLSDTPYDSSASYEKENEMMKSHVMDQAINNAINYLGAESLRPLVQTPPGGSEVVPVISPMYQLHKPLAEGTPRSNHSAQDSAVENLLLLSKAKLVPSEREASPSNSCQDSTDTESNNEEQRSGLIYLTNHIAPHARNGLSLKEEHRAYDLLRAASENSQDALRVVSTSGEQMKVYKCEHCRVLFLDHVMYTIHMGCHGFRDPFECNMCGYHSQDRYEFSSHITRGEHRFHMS
T5 sequence (Q96SW2 whole entry): as the sequence (Q96SW2 whole entry) above
T5 sequence (Q16531 whole entry partner): as the sequence (Q16531 whole entry partner) above
T3 sequence (P48729 whole entry): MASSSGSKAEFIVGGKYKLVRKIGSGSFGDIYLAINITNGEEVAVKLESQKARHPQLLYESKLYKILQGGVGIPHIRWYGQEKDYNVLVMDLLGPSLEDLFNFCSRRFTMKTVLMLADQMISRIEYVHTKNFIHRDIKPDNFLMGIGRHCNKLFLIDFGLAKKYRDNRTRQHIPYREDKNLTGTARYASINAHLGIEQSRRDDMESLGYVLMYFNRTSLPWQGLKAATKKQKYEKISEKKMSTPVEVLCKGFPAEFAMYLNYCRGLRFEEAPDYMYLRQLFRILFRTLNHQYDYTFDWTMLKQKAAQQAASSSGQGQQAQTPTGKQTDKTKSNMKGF
T3 sequence (Q96SW2 whole entry): as the sequence (Q96SW2 whole entry) above
T3 sequence (Q16531 whole entry partner): as the sequence (Q16531 whole entry partner) above
T4 sequence (Q9UKT9 whole entry): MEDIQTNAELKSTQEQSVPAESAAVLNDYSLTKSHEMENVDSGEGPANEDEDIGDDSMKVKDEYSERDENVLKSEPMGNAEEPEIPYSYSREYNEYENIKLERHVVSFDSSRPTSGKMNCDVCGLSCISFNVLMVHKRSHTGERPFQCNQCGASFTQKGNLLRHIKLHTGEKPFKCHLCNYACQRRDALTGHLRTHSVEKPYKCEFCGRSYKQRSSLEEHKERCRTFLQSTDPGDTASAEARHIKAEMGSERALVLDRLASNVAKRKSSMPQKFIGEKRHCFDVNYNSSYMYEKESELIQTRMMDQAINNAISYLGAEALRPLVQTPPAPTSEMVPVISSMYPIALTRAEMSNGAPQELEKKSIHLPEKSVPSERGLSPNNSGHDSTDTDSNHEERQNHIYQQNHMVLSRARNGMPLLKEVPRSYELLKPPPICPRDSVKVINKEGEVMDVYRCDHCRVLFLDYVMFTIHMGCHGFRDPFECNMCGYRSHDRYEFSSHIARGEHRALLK
T4 sequence (Q96SW2 whole entry): as the sequence (Q96SW2 whole entry) above
T4 sequence (Q16531 whole entry partner): as the sequence (Q16531 whole entry partner) above
T2 sequence (P30291 whole entry): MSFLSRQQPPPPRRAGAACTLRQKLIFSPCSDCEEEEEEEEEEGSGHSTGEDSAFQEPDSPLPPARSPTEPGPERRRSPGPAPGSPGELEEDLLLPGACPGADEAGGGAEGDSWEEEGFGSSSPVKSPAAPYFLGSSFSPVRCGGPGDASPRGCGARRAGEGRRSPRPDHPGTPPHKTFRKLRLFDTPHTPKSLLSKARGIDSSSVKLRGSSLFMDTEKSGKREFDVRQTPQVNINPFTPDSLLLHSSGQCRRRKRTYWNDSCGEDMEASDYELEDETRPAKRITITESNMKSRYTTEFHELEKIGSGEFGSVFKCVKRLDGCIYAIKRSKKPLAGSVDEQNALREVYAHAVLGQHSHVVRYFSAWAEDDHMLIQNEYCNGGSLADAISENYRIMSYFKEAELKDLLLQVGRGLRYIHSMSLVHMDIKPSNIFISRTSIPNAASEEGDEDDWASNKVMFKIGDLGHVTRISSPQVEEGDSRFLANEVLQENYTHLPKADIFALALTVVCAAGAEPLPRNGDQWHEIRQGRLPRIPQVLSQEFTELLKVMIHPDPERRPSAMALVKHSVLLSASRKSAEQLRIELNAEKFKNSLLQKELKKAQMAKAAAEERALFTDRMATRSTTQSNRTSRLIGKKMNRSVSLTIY
T2 sequence (Q96SW2 whole entry): as the sequence (Q96SW2 whole entry) above
T2 sequence (Q16531 whole entry partner): as the sequence (Q16531 whole entry partner) above

SMILES	GSPT1 substrate protein remaining % [1, 8]	IKZF2 substrate protein remaining % [2, 8]	Wee1 substrate protein remaining % [3, 8]	CK1α substrate protein remaining % [4, 8]	IKZF3 substrate protein remaining % [5, 8]	IKZF 1 substrate protein remaining % [6, 8]	inhibition at 0.5 µM [7]	inhibition at 2 µM [7]	other results
O=C1CCC(N2Cc3c(CN4CCN(c5ccccc5Br)CC4)cccc3C2=S)C(=O)N1 (stereo not drawn) [GT-08267, 3-(4-((4-(2-bromophenyl)piperazin-1-yl)methyl)-1-thioxoisoindolin-2-yl)piperidine-2,6-dione]	A (0% ≤ substrate protein remaining % ≤ 80%)	B (80%< substrate protein remaining %≤ 100%)	A (0% ≤ substrate protein remaining % ≤ 80%)	B (80%< substrate protein remaining %≤ 100%)	B (80%< substrate protein remaining %≤ 100%)	B (80%< substrate protein remaining %≤ 100%)	–	–	–
O=C1CCC(N2Cc3c(CN4CCN(c5c(Cl)ccnc5Cl)CC4)cccc3C2=S)C(=O)N1 (stereo not drawn) [GT-08725, 3-(4-((4-(2,4-dichloropyridin-3-yl)piperazin-1-yl)methyl)-1-thioxoisoindolin-2-yl)piperidine-2,6-dione]	A (0% ≤ substrate protein remaining % ≤ 80%)	B (80%< substrate protein remaining %≤ 100%)	A (0% ≤ substrate protein remaining % ≤ 80%)	B (80%< substrate protein remaining %≤ 100%)	B (80%< substrate protein remaining %≤ 100%)	B (80%< substrate protein remaining %≤ 100%)	–	–	–
O=C1CCC(N2Cc3c(CN4CC=C(c5cccc(Cl)c5Cl)CC4)cccc3C2=S)C(=O)N1 (stereo not drawn) [GT-08270, 3-(4-((4-(2,3-dichlorophenyl)-3,6-dihydropyridin-1(2H)-yl)methyl)-1-thioxoisoindolin-2-yl)piperidine-2,6-dione]	A (0% ≤ substrate protein remaining % ≤ 80%)	B (80%< substrate protein remaining %≤ 100%)	A (0% ≤ substrate protein remaining % ≤ 80%)	B (80%< substrate protein remaining %≤ 100%)	B (80%< substrate protein remaining %≤ 100%)	B (80%< substrate protein remaining %≤ 100%)	–	–	–
Cc1csc2ncnc(C3=CCN(Cc4cccc5c4CN(C4CCC(=O)NC4=O)C5=S)CC3)c12 (stereo not drawn) [GT-08938, 3-(4-((4-(5-methylthieno[2,3-d]pyrimidin-4-yl)-3,6-dihydropyridin-1(2H)-yl)methyl)-1-thioxoisoindolin-2-yl)piperidine-2,6-dione]	–	–	–	–	–	–	–	–	GSPT1 substrate protein remaining % [1, 9]: B (80%< substrate protein remaining %≤ 100%); IKZF2 substrate protein remaining % [2, 9]: B (80%< substrate protein remaining %≤ 100%); Wee1 substrate protein remaining % [3, 9]: A (0% ≤ substrate protein remaining % ≤ 80%); CK1α substrate protein remaining % [4, 9]: B (80%< substrate protein remaining %≤ 100%); IKZF3 substrate protein remaining % [5, 9]: B (80%< substrate protein remaining %≤ 100%); IKZF 1 substrate protein remaining % [6, 9]: B (80%< substrate protein remaining %≤ 100%)
CC(C)c1cc2c(N3CCN(Cc4cccc5c4CN(C4CCC(=O)NC4=O)C5=S)CC3)ncnc2s1 (stereo not drawn) [GT-08915, 3-(4-((4-(6-isopropylthieno[2,3-d]pyrimidin-4-yl)piperazin-1-yl)methyl)-1-thioxoisoindolin-2-yl)piperidine-2,6-dione]	–	–	–	–	–	–	–	–	GSPT1 substrate protein remaining % [1, 9]: B (80%< substrate protein remaining %≤ 100%); IKZF2 substrate protein remaining % [2, 9]: B (80%< substrate protein remaining %≤ 100%); Wee1 substrate protein remaining % [3, 9]: A (0% ≤ substrate protein remaining % ≤ 80%); CK1α substrate protein remaining % [4, 9]: B (80%< substrate protein remaining %≤ 100%); IKZF3 substrate protein remaining % [5, 9]: B (80%< substrate protein remaining %≤ 100%); IKZF 1 substrate protein remaining % [6, 9]: B (80%< substrate protein remaining %≤ 100%)
O=C1CCC(N2Cc3c(CN4CCC(c5nccc(Cl)c5Cl)CC4)cccc3C2=S)C(=O)N1 (stereo not drawn) [GT-08457, 3-(4-((4-(3,4-dichloropyridin-2-yl)piperidin-1-yl)methyl)-1-thioxoisoindolin-2-yl)piperidine-2,6-dione]	B (80%< substrate protein remaining %≤ 100%)	B (80%< substrate protein remaining %≤ 100%)	A (0% ≤ substrate protein remaining % ≤ 80%)	B (80%< substrate protein remaining %≤ 100%)	B (80%< substrate protein remaining %≤ 100%)	B (80%< substrate protein remaining %≤ 100%)	–	–	–
Cc1ccccc1N1CCN(Cc2cccc3c2CN(C2CCC(=O)NC2=O)C3=S)CC1 (stereo not drawn) [GT-08497, 3-(1-thioxo-4-((4-(o-tolyl)piperazin-1-yl)methyl)isoindolin-2-yl)piperidine-2,6-dione]	A (0% ≤ substrate protein remaining % ≤ 80%)	A (0% ≤ substrate protein remaining % ≤ 80%)	A (0% ≤ substrate protein remaining % ≤ 80%)	B (80%< substrate protein remaining %≤ 100%)	B (80%< substrate protein remaining %≤ 100%)	A (0% ≤ substrate protein remaining % ≤ 80%)	–	–	–
O=C1CCC(N2Cc3cc(CN4CCN(c5ccnc(Cl)c5F)CC4)ccc3C2=S)C(=O)N1 (stereo not drawn) [GT-09239, 3-(5-((4-(2-chloro-3-fluoropyridin-4-yl)piperazin-1-yl)methyl)-1-thioxoisoindolin-2-yl)piperidine-2,6-dione]	–	–	–	–	–	–	60 to 80%	80 to 100%	–
O=C1CCC(N2Cc3c(CN4CC=C(c5cccs5)CC4)cccc3C2=S)C(=O)N1 (stereo not drawn) [GT-08299, 3-(4-((4-(thiophen-2-yl)-3,6-dihydropyridin-1 (2H)-yl)methyl)-1-thioxoisoindolin-2-yl)piperidine-2,6-dione]	–	–	–	–	–	–	53 to 60%	60 to 80%	–
O=C1CCC(N2Cc3cc(CN4CCC(c5ncnc6sc(-c7ccccc7)cc56)CC4)ccc3C2=S)C(=O)N1 (stereo not drawn) [GT-09306, 3-(5-((4-(6-phenylthieno[2,3-d]pyrimidin-4-yl)piperidin-1-yl)methyl)-1-thioxoisoindolin-2-yl)piperidine-2,6-dione]	–	–	–	–	–	–	40 to 53%	80 to 100%	–
O=C1CCC(N2Cc3c(CN4CCC(N(c5ccccc5)c5ccccn5)CC4)cccc3C2=S)C(=O)N1 (stereo not drawn) [GT-08243, 3-(4-((4-(phenyl(pyridin-2-yl)amino)piperidin-1-yl)methyl)-1-thioxoisoindolin-2-yl)piperidine-2,6-dione]	–	–	–	–	–	–	20 to 30%	60 to 80%	–
O=C1CCC(N2Cc3cc(CN4CC(c5ccnc6cc(F)ccc56)C4)ccc3C2=S)C(=O)N1 (stereo not drawn) [GT-09279, 3-(5-((3-(7-fluoroquinolin-4-yl)azetidin-1-yl)methyl)-1-thioxoisoindolin-2-yl)piperidine-2,6-dione]	–	–	–	–	–	–	60 to 80%	80 to 100%	–
O=C1CCC(N2Cc3c(CN4CC5CCC(C4)N5C(c4ccccc4)c4ccccc4)cccc3C2=S)C(=O)N1 (stereo not drawn) [GT-08234, 3-(4-((8-benzhydryl-3,8-diazabicyclo[3.2.1]octan-3-yl)methyl)-1-thioxoisoindolin-2-yl)piperidine-2,6-dione]	–	–	–	–	–	–	40 to 53%	60 to 80%	–
